Calls of active or inactive are those of the source.
Tests used:
[1] = tested on: Vero; test: Vero cell cytotoxicity, cytotoxicity control for flavivirus capping enzyme inhibitors (AID 588742); assay type: functional; details: Chlorocebus sabaeus
[2] = molecular target: Cytochrome P450 2C9 (Homo sapiens, UniProt P11712)
[3] = inhibitors of clade B AD8 Env fusion, dose response, cell-based, cherry-pick (AID 652062); assay type: functional;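 further: luciferase signal from cell-cell fusion driven by HIV-1 clade B AD8 Env; potency is for inhibitors of fusion seen as a drop in luminescence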
[4] = ZM109 Env clade C HIV-1 fusion inhibitors, dose response, HeLa effector, CEM target cells, luciferase, cherry-pick (AID 652058); assay type: functional, cell-based
[5] = off-target signal loss in HeLa-CEM21 co-culture – HeLa F-luc CTL cells, cherry-picked, counter-screen for HIV-1 Env fusion inhibitor project, dose response (AID 652040); assay type: functional, cell-based;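 further: potency for signal decrease marking cytotoxic or nonspecific inhibition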
[6] = inhibitors of HIV Env-driven cell fusion, dose response, cherry-pick (AID 652057); assay type: functional, cell-based
[7] = molecular target: Heat shock protein HSP 90-alpha (Homo sapiens, UniProt P07900); assay type: functional, organism-based
[8] = molecular target: Mu-type opioid receptor (Homo sapiens, UniProt P35372); assay type: functional, cell-based;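 further: U2OS cells with beta-arrestin recruitment to OPRM1 by beta-gal complementation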
[9] = molecular target: 5-hydroxytryptamine receptor 2A (Mus musculus, UniProt P35363); assay type: functional, cell-based;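 further: CHO-K1 cells with tagged receptor and beta-arrestin; agonist potency measured as compound-induced activation of the receptor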
[10] = cytotoxicity toward NIH3T3 fibroblasts, dose response, counter-screen, cell-based, ATP luminescence, mouse fibroblasts (AID 2010); assay type: functional;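 further: cells exposed to compound for about 90 hours before reading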
[11] = inhibitors of intracellular T. cruzi replication, confirmation, NIH3T3 host cells, beta-gal luminescence (AID 2044); assay type: functional, cell-based;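 further: intracellular parasites grown in NIH/3T3 mouse fibroblasts as host cells; luminescent beta-galactosidase reporter signal from transgenic T. cruzi replicating inside host cells; inhibitors lower the luminescence signal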
[12] = molecular target: T1, Protein RecA (Mycobacterium tuberculosis, UniProt P9WHJ3); test: Fluorescence Cell-Free Homogeneous Dose Retest to Identify Inhibitors of RecA-Intein Splicing Activity. [Related pubchem assays (depositor defined):AID2097, AID2223, AID489010, AID492950]; assay type: functional
T1 sequence (P9WHJ3 whole entry): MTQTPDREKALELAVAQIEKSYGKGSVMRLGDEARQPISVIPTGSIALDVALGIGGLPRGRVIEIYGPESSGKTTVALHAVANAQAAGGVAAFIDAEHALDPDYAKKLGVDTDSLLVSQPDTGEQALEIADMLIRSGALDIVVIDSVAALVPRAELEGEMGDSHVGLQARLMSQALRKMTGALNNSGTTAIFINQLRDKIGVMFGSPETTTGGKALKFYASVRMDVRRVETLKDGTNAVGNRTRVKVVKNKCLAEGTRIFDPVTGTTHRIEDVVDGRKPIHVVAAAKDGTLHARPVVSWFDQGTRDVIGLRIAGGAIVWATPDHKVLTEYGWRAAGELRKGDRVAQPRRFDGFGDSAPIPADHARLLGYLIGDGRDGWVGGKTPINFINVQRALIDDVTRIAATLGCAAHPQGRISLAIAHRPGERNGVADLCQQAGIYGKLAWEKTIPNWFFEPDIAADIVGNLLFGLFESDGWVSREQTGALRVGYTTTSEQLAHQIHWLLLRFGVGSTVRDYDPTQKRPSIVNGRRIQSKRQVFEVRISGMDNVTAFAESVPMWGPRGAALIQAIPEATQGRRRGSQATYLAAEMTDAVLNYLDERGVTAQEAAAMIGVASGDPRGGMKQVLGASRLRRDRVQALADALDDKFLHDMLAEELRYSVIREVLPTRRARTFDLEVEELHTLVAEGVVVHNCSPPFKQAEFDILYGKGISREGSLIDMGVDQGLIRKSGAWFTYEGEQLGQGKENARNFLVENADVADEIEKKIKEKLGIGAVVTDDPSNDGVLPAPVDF

[13] = molecular target: T2, Replicative DNA helicase DnaB (Mycobacterium tuberculosis, UniProt P9WMR3); test: DnaB intein splicing inhibitors, dose response, biochemical, cell-free fluorescence (AID 449749); assay type: functional
T2 sequence (P9WMR3 whole entry): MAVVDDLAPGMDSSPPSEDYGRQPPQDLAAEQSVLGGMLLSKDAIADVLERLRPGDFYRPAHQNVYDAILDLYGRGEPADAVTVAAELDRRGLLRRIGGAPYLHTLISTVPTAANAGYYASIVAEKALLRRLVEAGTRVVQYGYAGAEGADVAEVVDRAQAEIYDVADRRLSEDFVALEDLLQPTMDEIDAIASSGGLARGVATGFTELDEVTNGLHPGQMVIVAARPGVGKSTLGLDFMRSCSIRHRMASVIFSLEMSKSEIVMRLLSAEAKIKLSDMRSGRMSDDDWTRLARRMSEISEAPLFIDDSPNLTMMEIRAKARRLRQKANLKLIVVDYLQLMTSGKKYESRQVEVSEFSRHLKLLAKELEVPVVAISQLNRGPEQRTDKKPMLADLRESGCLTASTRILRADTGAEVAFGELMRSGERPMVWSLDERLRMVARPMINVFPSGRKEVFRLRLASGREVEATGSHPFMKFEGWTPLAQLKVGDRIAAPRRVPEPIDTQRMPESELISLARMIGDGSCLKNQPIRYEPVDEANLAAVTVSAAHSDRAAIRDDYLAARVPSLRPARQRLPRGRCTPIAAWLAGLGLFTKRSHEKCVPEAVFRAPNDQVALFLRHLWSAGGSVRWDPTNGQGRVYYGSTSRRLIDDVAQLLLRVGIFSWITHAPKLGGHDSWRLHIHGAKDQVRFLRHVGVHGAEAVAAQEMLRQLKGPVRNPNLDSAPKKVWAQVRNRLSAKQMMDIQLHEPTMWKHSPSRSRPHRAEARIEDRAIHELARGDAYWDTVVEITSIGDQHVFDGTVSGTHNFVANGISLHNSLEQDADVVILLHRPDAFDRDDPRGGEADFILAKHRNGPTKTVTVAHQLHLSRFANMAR

[14] = Luminescence Cell-Based Dose Retest to Confirm Inhibitors of Cancer Stem Cells. [Related pubchem assays (depositor defined):AID2717, AID2721]; assay type: functional; details: Homo sapiens
[15] = molecular target: Genome polyprotein (dengue virus type 2, UniProt P29990); test: Dengue-2 NS5 methyltransferase inhibitors, primary screen, biochemical, confirmation dose response (AID 588689); assay type: functional
[16] = miR-122 activators in hepatoma reporter cells, dose response, cell-based, Huh7 psiCHECK-miR122, Renilla luciferase, cherry-picked (AID 651956); assay type: functional;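 further: huh7 hepatoma cells stably carrying a psiCHECK-2 miR-122 sensor plasmid; renilla luciferase signal reporting endogenous miR-122 activity after 48 h compound exposure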
[17] = NIH:OVCAR-3 ovarian cancer cell cytotoxicity, dose response, PAX8 inhibitor project, plate reader, dry powder samples (AID 743044); assay type: functional, cell-based
[18] = cytotoxicity in OVCAR8 ovarian cancer cells, dose response, PAX8 project, cell-based, plate reader, dry powder samples (AID 743197); assay type: functional; details: OVCAR-8
[19] = molecular target: Paired box protein Pax-8 (Homo sapiens, UniProt Q06710); test: inhibitors of PAX8-driven TPO luciferase reporter, dose response, RMG-I cells, cherry-pick (AID 687027); assay type: functional, cell-based;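 further: luciferase reporter driven by Pax8 target thyroperoxidase promoter measured by SteadyGlo luminescence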
Paired box protein Pax-8, sequence (Q06710 whole entry): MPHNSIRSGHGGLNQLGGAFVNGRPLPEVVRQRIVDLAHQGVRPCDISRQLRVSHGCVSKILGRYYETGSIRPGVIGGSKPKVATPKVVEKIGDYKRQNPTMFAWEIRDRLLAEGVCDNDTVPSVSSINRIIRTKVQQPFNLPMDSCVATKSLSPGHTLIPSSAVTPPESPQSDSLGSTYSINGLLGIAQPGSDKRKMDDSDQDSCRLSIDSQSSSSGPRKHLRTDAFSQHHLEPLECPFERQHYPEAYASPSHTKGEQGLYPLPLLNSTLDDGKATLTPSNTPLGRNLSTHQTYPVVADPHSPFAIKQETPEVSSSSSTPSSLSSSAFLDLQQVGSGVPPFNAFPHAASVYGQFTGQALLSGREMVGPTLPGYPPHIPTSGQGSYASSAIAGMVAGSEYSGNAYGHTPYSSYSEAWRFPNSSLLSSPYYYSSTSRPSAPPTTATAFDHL

5-hydroxytryptamine receptor 2A, sequence (P35363 whole entry): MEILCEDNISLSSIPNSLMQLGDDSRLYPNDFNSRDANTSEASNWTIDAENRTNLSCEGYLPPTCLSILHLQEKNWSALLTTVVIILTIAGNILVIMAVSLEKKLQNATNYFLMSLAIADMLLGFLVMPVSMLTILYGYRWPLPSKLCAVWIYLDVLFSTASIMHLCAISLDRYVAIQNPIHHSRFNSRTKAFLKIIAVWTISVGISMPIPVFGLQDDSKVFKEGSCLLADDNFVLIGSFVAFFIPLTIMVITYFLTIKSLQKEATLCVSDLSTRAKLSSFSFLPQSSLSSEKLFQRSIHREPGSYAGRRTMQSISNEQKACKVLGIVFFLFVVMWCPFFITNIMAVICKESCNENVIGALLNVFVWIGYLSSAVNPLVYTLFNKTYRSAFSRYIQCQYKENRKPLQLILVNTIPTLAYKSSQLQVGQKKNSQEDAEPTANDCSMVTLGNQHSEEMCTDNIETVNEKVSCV
Mu-type opioid receptor, sequence (P35372 whole entry): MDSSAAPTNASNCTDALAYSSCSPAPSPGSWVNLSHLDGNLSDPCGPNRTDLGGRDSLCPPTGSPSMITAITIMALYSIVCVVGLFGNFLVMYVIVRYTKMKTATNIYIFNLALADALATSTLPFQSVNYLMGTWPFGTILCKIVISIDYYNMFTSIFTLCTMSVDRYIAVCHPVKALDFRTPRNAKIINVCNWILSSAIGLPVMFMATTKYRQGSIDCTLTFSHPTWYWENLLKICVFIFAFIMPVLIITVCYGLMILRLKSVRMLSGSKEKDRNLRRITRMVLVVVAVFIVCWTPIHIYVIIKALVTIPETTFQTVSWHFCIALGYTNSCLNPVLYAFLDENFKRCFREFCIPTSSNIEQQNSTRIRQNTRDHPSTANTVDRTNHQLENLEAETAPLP
Genome polyprotein, sequence (P29990 2492-3391 limits assumed): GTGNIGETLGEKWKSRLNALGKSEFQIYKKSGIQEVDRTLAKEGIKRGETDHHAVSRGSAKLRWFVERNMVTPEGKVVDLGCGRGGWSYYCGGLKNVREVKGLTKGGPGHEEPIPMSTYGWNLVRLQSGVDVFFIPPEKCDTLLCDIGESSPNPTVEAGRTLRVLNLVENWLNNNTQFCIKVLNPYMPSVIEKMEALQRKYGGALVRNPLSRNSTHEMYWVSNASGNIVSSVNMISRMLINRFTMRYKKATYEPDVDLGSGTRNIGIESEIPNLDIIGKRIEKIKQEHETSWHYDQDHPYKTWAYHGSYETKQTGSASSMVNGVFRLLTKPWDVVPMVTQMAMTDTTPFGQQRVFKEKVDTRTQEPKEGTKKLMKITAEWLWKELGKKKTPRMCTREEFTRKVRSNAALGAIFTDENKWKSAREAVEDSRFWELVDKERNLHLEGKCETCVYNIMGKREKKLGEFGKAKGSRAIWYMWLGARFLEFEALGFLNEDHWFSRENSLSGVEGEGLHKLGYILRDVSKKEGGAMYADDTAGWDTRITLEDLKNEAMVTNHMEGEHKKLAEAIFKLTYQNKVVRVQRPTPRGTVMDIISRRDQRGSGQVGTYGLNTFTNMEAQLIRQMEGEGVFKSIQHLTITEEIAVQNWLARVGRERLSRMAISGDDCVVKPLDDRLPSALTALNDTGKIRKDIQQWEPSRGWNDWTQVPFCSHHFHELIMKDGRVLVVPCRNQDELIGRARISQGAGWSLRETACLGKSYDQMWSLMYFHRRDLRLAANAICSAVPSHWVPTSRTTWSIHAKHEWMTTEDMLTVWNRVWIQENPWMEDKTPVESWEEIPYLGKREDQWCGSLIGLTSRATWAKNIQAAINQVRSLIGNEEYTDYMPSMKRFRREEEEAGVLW
Cytochrome P450 2C9, sequence (P11712 whole entry, the tested form may be a part): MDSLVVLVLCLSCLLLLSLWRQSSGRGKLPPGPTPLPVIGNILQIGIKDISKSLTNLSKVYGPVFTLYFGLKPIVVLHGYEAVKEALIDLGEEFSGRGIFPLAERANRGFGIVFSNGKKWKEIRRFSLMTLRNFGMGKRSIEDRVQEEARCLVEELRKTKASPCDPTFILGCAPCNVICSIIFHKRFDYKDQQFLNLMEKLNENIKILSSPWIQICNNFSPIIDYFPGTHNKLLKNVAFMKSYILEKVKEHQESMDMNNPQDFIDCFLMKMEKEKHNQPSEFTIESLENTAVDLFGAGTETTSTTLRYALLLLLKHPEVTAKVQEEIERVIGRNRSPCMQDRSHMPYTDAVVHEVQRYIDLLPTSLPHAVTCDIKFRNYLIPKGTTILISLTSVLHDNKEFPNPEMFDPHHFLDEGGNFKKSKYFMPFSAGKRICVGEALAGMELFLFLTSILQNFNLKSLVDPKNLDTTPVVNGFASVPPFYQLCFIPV

CCC(C)(C)n1nnnc1C(C(C)C)N(Cc1ccco1)Cc1cc2cc3c(cc2nc1O)OCO3 (configuration not stated)
CC50 [1]: > 40 µM (active)
AC50 [2]: inconclusive

COc1ccccc1C(=O)NC(CCSC)C(=O)N1CCN(C/C=C/c2ccccc2)CC1 (configuration not stated)
AC50 [3]: 12.8 µM (active)
AC50 [4]: 2.79 µM (active)
AC50 [5]: 10.7 µM (active)
AC50 [6]: 4.51 µM (active)

CN(C)/C=C/C(=O)c1ccc(Oc2ccccc2)cc1
AC50 [7]: 4.26 µM (active)

Cc1ccc(S(=O)(=O)Nc2ccc3c(c2)CC(=O)N([C@H](C)CO)C[C@H](C)[C@H](CN(C)S(=O)(=O)c2ccccc2)O3)cc1
AC50 [3]: 3.38 µM (active)
AC50 [4]: 2.46 µM (active)
AC50 [6]: 0.877 µM (active)

CCCCN(CC)CCCNC(=O)CC1Oc2ccccc2NC1=O (configuration not stated)
EC50 [8]: 92.5 µM (inactive)
EC50 [9]: 3.3 µM (active)

Cn1nc([N+](=O)[O-])c(C(C#N)c2ccccn2)c(Cl)c1=O (configuration not stated)
EC50 [10]: > 30 µM (not active)
CC50 [1]: 12 µM (active)
EC50 [11]: 4.82 µM (active)
EC50 [12]: 9.8 µM (active)
AC50 [13]: 25.8 µM (active)
AC50 [14]: 5.48 µM (active)
IC50 [15]: 26.5 µM (active)

C[C@@H]1CN([C@H](C)CO)S(=O)(=O)c2ccc(-c3ccccc3)cc2O[C@@H]1CN(C)C(=O)c1ccc2c(c1)OCO2
AC50 [16]: 27.2 µM (active)

CC(C(=O)O)c1ccc(C(=O)c2cccs2)cc1 (configuration not stated) [SUPROFEN]
EC50 [8]: 92.6 µM (inactive)
EC50 [9]: 5.34 µM (active)

C[C@H]1CCCCO[C@H](CN(C)Cc2ccc(C(F)(F)F)cc2)[C@@H](C)CN([C@@H](C)CO)C(=O)c2cc(NS(=O)(=O)c3cccs3)ccc2O1
AC50 [17]: 37.6 µM (active)
AC50 [18]: > 70 µM (inactive)
AC50 [19]: 5.95 µM (active)

CCCN(CCC)C1CCc2cccc(O)c2C1 (configuration not stated)
EC50 [8]: 92.5 µM (inactive)
EC50 [9]: 2.3 µM (active)
